Active and inactive are the calls of the source. The calls are words filed in the database; no cut-off is given here. *1 amine or outer side, *2 acyl side, *3 side chain or, on linkers, in order; H or OH if unused. Where a SMILES comes first, the peptide text is derived from it. Bridges are numbered along the chain shown (N, C = ends). Triazole bridges read from a SMILES are 1,4-linked. [ ]: non-standard residue; d: D form. Dap(N3) = [N-]=[N+]=NC[C@H](N)C(=O)O; oXylylene = c1ccc(C[*:2])c(C[*:1])c1; pXylylene = c1cc(C[*:2])ccc1C[*:1]; Pra = C#CC[C@H](N)C(=O)O; CH2CH2 = C(C[*:2])[*:1]; X2 = O=C(CC[*:2])[*:1]; X1 = C(C[*:1])C[*:2]
System: Calvarial osteoblast
Test: Induction of osteoblast differentiation in rat fetal calvarial osteoblast assessed as [3H]thymidine incorporation at 10^-8 to 10^-10 after 6 hrs
Assay type: functional, cell-based

SMILES | Activity
C[C@H](NC(=O)[C@@H]1CSSC[C@H](NC(=O)[C@@H](N)CCCCN)C(=O)N[C@@H](CC(N)=O)C(=O)N[C@@H]([C@@H](C)O)C(=O)N[C@@H](C)C(=O)N[C@@H]([C@@H](C)O)C(=O)N1)C(N)=O (H-KCNTATCA-NH2; disulfide 2-7) | Active
C[C@H](NC(=O)[C@@H]1CSCCSC[C@H](NC(=O)[C@@H](N)CCCCN)C(=O)N[C@@H](CC(N)=O)C(=O)N[C@@H]([C@@H](C)O)C(=O)N[C@@H](C)C(=O)N[C@@H]([C@@H](C)O)C(=O)N1)C(N)=O (H-KCNTATCA-NH2; linker 2-7 via CH2CH2) | inactive
C[C@H](NC(=O)[C@@H]1CSCCCSC[C@H](NC(=O)[C@@H](N)CCCCN)C(=O)N[C@@H](CC(N)=O)C(=O)N[C@@H]([C@@H](C)O)C(=O)N[C@@H](C)C(=O)N[C@@H]([C@@H](C)O)C(=O)N1)C(N)=O (H-KCNTATCA-NH2; linker 2-7 via X1) | inactive
C[C@H](NC(=O)[C@@H]1CSCc2ccccc2CSC[C@H](NC(=O)[C@@H](N)CCCCN)C(=O)N[C@@H](CC(N)=O)C(=O)N[C@@H]([C@@H](C)O)C(=O)N[C@@H](C)C(=O)N[C@@H]([C@@H](C)O)C(=O)N1)C(N)=O (H-KCNTATCA-NH2; linker 2-7 via oXylylene) | inactive
C[C@H](NC(=O)[C@@H]1CSCc2ccc(cc2)CSC[C@H](NC(=O)[C@@H](N)CCCCN)C(=O)N[C@@H](CC(N)=O)C(=O)N[C@@H]([C@@H](C)O)C(=O)N[C@@H](C)C(=O)N[C@@H]([C@@H](C)O)C(=O)N1)C(N)=O (H-KCNTATCA-NH2; linker 2-7 via pXylylene) | Active
C[C@H](NC(=O)[C@@H]1CSCCC(=O)NCCCC[C@H](NC(=O)[C@@H](N)CCCCN)C(=O)N[C@@H](CC(N)=O)C(=O)N[C@@H]([C@@H](C)O)C(=O)N[C@@H](C)C(=O)N[C@@H]([C@@H](C)O)C(=O)N1)C(N)=O (H-KKNTATCA-NH2; linker 2-7 via X2) | inactive
C[C@H](NC(=O)[C@@H]1Cn2cc(nn2)C[C@H](NC(=O)[C@@H](N)CCCCN)C(=O)N[C@@H](CC(N)=O)C(=O)N[C@@H]([C@@H](C)O)C(=O)N[C@@H](C)C(=O)N[C@@H]([C@@H](C)O)C(=O)N1)C(N)=O (H-K[Pra]NTAT[Dap(N3)]A-NH2; triazole 2-7) | inactive
